Measurements as given in US8906901B2, “Administration of dipeptidyl peptidase inhibitors” (priority 2005, dated 2014).

Tested on: db/db (BKS.Cg—+Lepr^db/+Lepr^db) mice
Test: Plasma glucose after 21 days of administration in powder chow, alone or with pioglitazone
Assay type: in vivo
Conditions: male db/db mice, 21 days in chow, fed condition; 0.03% (w/w) succinate salt of Compound I and/or 0.0075% (w/w) pioglitazone hydrochloride; mean (n=7) ± SD
Excerpt: Male db/db (BKS.Cg—+Lepr^db/+Lepr^db) mice (6 weeks of age, CLEA Japan (Tokyo, Japan)) were divided into 4 groups (n=7 in each group) comprising Group A to Group D. Group A had free access to CE-2 powder chow (CLEA Japan) for 21 days. […] During 21 days of administration of the powder chow, there were not significant differences in the administration amount of the powder chow in the above 4 groups. After 21 days of administration of the powder chow, blood samples were taken from the orbital veins of the mice by capillary pipette under feeding condition, and plasma glucose levels were enzymatically measured by using Autoanalyzer 7080 (Hitachi, Japan). The values in the table means average (n=7)±standard deviation.

In the case of `Cn1c(=O)cc(N2CCC[C@@H](N)C2)n(Cc2cc(F)ccc2C#N)c1=O` [Compound I, 2-[6-(3-Amino-piperidin-1-yl)-3-methyl-2,4-dioxo-3,4-dihydro-2H-pyrimidin-1-ylmethyl]-4-fluoro-benzonitrile], the “Plasma Glucose” value is reported as 410.3 ± 47.9 mg/dL.
